Measured values as given in patent US10307357B2, “Prebiotic oral care compositions containing an alkyl glycoside” (COLGATE-PALMOLIVE COMPANY, priority 2013, dated 2019).

Assays:
Experiment in all cases: Twenty-four hour optical density growth in BHI
Format in all cases: cell-based
Settings in all cases: over 24 hours, control = 1
[1] = tested on: Porphyromonas gingivalis
Procedure: (§1) The extent of growth of the tested bacteria in response to selected glycosides (β-methyl-D-galactoside and α-methyl-D-galactoside) was investigated by setting up growth curves in a nutritionally rich medium (brain heart infusion broth (BHI), Oxoid), over 24 hours. Late exponential growth phase liquid cultures were prepared by transferring the respective bacterium from blood agar plates to BHI and overnight incubation at 37° C. in an anaerobic atmosphere for A. viscosus, V. parvula, F. nucleatum, P. gingivalis, P. intermedia, T. forsythia, A. naeslundii, and C. sputigena, and in a 5% CO2 environment for S. salivarius, S. sanguinis, S. mitis, A. actinomycetemcomitans, S. mutans, S. sobrinus and S. gordonii. Overnight cultures were transferred to BHI and adjusted to a concentration of 1×10^7 CFU/ml (colony forming units per ml) by measuring the optical density at 600 nm (OD600) (BioRad SmartSpec 3000). For each strain, 200 μl of the bacterial suspension was added to a 96-well plate containing 20 μl of the respective glycosides. Final concentrations of the glycosides were set to 5, 10, 20 and 25 μmol/ml. […] Plates were incubated as previously described. For each combination of bacterium/glycoside, and for each of their respective controls (i.e. the particular bacterium in the nutritionally rich medium with no glycoside), the optical density was measured at 630 nm (OD630) at 0 h and 24 h (Thermo Scientific Multiskan Ascent). Additionally, the OD630 for combinations of bacterium/glycosides grown in a 5% CO2 environment were also measured every hour between 0 h and 9 h. […] The experiment was carried out on three different days (thus providing 3 biological replicas) and on each day the experiment was carried out in quadruple (thus providing 4 technical replicas) for each combination of bacterium with glycoside and for each control. For each day and for each combination, the average (mean) of the values obtained (as detailed above) for the four technical replicas was calculated to provide a single value for each combination on each day. The values shown in Tables 5 to 6, below, are the average (mean) of the three single values obtained for each combination of bacterium with glycoside (α-Methyl-D-Galactoside=α-MDG; β-Methyl-D-Galactoside=β-MDG).

[2] = tested on: Streptococcus sobrinus
Procedure: as §1

[3] = tested on: Actinomyces naeslundii
Procedure: as §1

[4] = tested on: Actinomyces viscosus
Procedure: as §1

[5] = tested on: Streptococcus sanguinis
Procedure: as §1

[6] = tested on: Streptococcus mutans
Procedure: as §1

[7] = tested on: Veillonella parvula
Procedure: as §1

[8] = tested on: Prevotella intermedia
Procedure: as §1

[9] = tested on: Fusobacterium nucleatum
Procedure: as §1

[10] = tested on: Streptococcus salivarius
Procedure: as §1

[11] = tested on: Tannerella forsythia
Procedure: as §1

[12] = tested on: Streptococcus gordonii
Procedure: as §1

[13] = tested on: Aggregatibacter actinomycetemcomitans
Procedure: as §1

[14] = tested on: Streptococcus mitis
Procedure: as §1

[15] = tested on: Capnocytophaga sputigena
Procedure: as §1

CO[C@@H]1O[C@H](CO)[C@H](O)[C@H](O)[C@H]1O [β-methyl-D-galactoside]
maximal OD630 divided by control (extent of growth) ([1]; 5 μmol/ml): 0.8852 | maximal OD630 divided by control (extent of growth) ([1]; 10 μmol/ml): 0.9738 | maximal OD630 divided by control (extent of growth) ([1]; 20 μmol/ml): 0.9498 | maximal OD630 divided by control (extent of growth) ([1]; 25 μmol/ml): 0.9364 | maximal OD630 divided by control (extent of growth) ([2]; 5 μmol/ml): 0.8914 | maximal OD630 divided by control (extent of growth) ([2]; 10 μmol/ml): 0.8818 | maximal OD630 divided by control (extent of growth) ([2]; 20 μmol/ml): 0.9110 | maximal OD630 divided by control (extent of growth) ([2]; 25 μmol/ml): 0.9111 | maximal OD630 divided by control (extent of growth) ([3]; 5 μmol/ml): 0.9746 | maximal OD630 divided by control (extent of growth) ([3]; 10 μmol/ml): 0.9516 | maximal OD630 divided by control (extent of growth) ([3]; 20 μmol/ml): 0.9705 | maximal OD630 divided by control (extent of growth) ([3]; 25 μmol/ml): 0.9802 | maximal OD630 divided by control (extent of growth) ([4]; 5 μmol/ml): 0.6467 | maximal OD630 divided by control (extent of growth) ([4]; 10 μmol/ml): 0.6333 | maximal OD630 divided by control (extent of growth) ([4]; 20 μmol/ml): 0.6745 | maximal OD630 divided by control (extent of growth) ([4]; 25 μmol/ml): 0.6464 | maximal OD630 divided by control (extent of growth) ([5]; 5 μmol/ml): 0.8787 | maximal OD630 divided by control (extent of growth) ([5]; 10 μmol/ml): 0.8540 | maximal OD630 divided by control (extent of growth) ([5]; 20 μmol/ml): 0.8629 | maximal OD630 divided by control (extent of growth) ([5]; 25 μmol/ml): 0.8842 | maximal OD630 divided by control (extent of growth) ([6]; 5 μmol/ml): 0.9473 | maximal OD630 divided by control (extent of growth) ([6]; 10 μmol/ml): 0.9083 | maximal OD630 divided by control (extent of growth) ([6]; 20 μmol/ml): 0.7929 | maximal OD630 divided by control (extent of growth) ([6]; 25 μmol/ml): 0.5618 | maximal OD630 divided by control (extent of growth) ([7]; 5 μmol/ml): 0.8912 | maximal OD630 divided by control (extent of growth) ([7]; 10 μmol/ml): 0.9129 | maximal OD630 divided by control (extent of growth) ([7]; 20 μmol/ml): 0.9145 | maximal OD630 divided by control (extent of growth) ([7]; 25 μmol/ml): 0.9462 | maximal OD630 divided by control (extent of growth) ([8]; 5 μmol/ml): 0.9000 | maximal OD630 divided by control (extent of growth) ([8]; 10 μmol/ml): 0.8909 | maximal OD630 divided by control (extent of growth) ([8]; 20 μmol/ml): 0.9071 | maximal OD630 divided by control (extent of growth) ([8]; 25 μmol/ml): 0.9102 | maximal OD630 divided by control (extent of growth) ([9]; 5 μmol/ml): 0.8134 | maximal OD630 divided by control (extent of growth) ([9]; 10 μmol/ml): 0.8181 | maximal OD630 divided by control (extent of growth) ([9]; 20 μmol/ml): 0.8161 | maximal OD630 divided by control (extent of growth) ([9]; 25 μmol/ml): 0.8213 | maximal OD630 divided by control (extent of growth) ([10]; 5 μmol/ml): 1.2275 | maximal OD630 divided by control (extent of growth) ([10]; 10 μmol/ml): 1.5208 | maximal OD630 divided by control (extent of growth) ([10]; 20 μmol/ml): 1.7353 | maximal OD630 divided by control (extent of growth) ([10]; 25 μmol/ml): 1.7445 | maximal OD630 divided by control (extent of growth) ([11]; 5 μmol/ml): 0.9652 | maximal OD630 divided by control (extent of growth) ([11]; 10 μmol/ml): 0.9920 | maximal OD630 divided by control (extent of growth) ([11]; 20 μmol/ml): 0.9847 | maximal OD630 divided by control (extent of growth) ([11]; 25 μmol/ml): 1.0042 | maximal OD630 divided by control (extent of growth) ([12]; 5 μmol/ml): 0.9811 | maximal OD630 divided by control (extent of growth) ([12]; 10 μmol/ml): 0.9760 | maximal OD630 divided by control (extent of growth) ([12]; 20 μmol/ml): 0.9954 | maximal OD630 divided by control (extent of growth) ([12]; 25 μmol/ml): 1.0054 | maximal OD630 divided by control (extent of growth) ([13]; 5 μmol/ml): 0.7099 | maximal OD630 divided by control (extent of growth) ([13]; 10 μmol/ml): 0.7723 | maximal OD630 divided by control (extent of growth) ([13]; 20 μmol/ml): 0.7373 | maximal OD630 divided by control (extent of growth) ([13]; 25 μmol/ml): 0.7472 | maximal OD630 divided by control (extent of growth) ([14]; 5 μmol/ml): 0.8435 | maximal OD630 divided by control (extent of growth) ([14]; 10 μmol/ml): 0.8256 | maximal OD630 divided by control (extent of growth) ([14]; 20 μmol/ml): 0.9114 | maximal OD630 divided by control (extent of growth) ([14]; 25 μmol/ml): 0.8116 | maximal OD630 divided by control (extent of growth) ([15]; 5 μmol/ml): 0.8841 | maximal OD630 divided by control (extent of growth) ([15]; 10 μmol/ml): 0.8633 | maximal OD630 divided by control (extent of growth) ([15]; 20 μmol/ml): 0.8645 | maximal OD630 divided by control (extent of growth) ([15]; 25 μmol/ml): 0.8575
